Reference: US20260306421A1, “SYSTEMS AND METHODS FOR TRANSDERMAN PATCH DELIVERY” (VITAMAX PATCH WHOLESALER LLC, priority 2022, published 2026)
Blank lines part the entries; values can stand above or below the compound they belong to.

Experiments:
[1] = Iron complex adhesive compatibility and loading screen; type: physicochemical
Method: Pre-formulation studies were performed to determine the compatibility of the iron complexes with a range of transdermal patch adhesives (Table 15).
The compatibility of the complexes with the patch adhesives was assessed by mixing and visually checking the clarity of the mixture.
In the adhesives that were computable with the iron complexes the maximum drug loading of the complexes in the adhesive following solvent evaporation was determined. This was achieved by mixing the drug, adhesive and co-solvents until a clear solution was obtained at different drug:adhesive ratios and placing few drops of the mixture onto the patch backing sheet, leaving it to dry for 3-4 h, and examining the formed film on the surface of the backings for evidence of drug crystals.
Following complete drying of the solvents, the adhesive layer was covered by a release liner, compressed, and then cut using 34 mm circular manual die cutter (FIG. 23).

[2] = Solubility of iron chloride hexahydrate and iron complexes (visual / assayed); type: physicochemical; conditions: visual (*)
Method: Due to the high number of test samples (6 complexes plus the starting material, iron chloride hexahydrate) a visual solubility screen was used to screen the solubility in a range of solvents. […] Quantitative determination was performed by either incubating the complex in excess in the solvent using a shaking 37° C. water bath for 48 h or sonicating it for 2 hours at 40° C. or leaving overnight on a 50° C. hot plate. Once incubation period was completed, the exact solubility in a particular solvent was assayed (using the iron assay) after centrifugation (i.e. assay iron content in the supernatant using the Ferrozine® assay).

[3] = Iron adhesive patch skin permeation and deposition; type: in vitro ADME, porcine; conditions: t-test p value, 0.5
Method: To perform the skin permeation studies, dermatomed skin (1 mm) was glued onto the receiver compartment of the Franz cell that contained 80:20 PG:water. A zero hour sample was taken from the receiver fluid, the patches were placed on top of the skin and held in place by a small weight (8.75 g). The patches that were tested were A2, A3, A4 (Table 16) as well as the existing commercial iron transdermal patch. After 24 hours, the receiver fluid was assayed using the quantitative iron assay and a compatible calibration in the same medium (80:20 PG:water) was used. The skin deposition was determined by removing the dermatomed skin from the donor compartment when the 24 h was completed, chopping into smaller pieces using scissors and incubating with the extraction fluid, ethanol. The samples were then transferred to Eppendorf tubes containing one stainless steel 5 mm bead and loaded into the TissuLyser II (Qiagen, Germany) for 30 min 30 Hz. The samples were centrifuged (5 min at 13,000 rpm) and supernatant assayed for iron content.

[4] = Iron complex reservoir solvent solubility screening; type: physicochemical; conditions: Span 80, SDS, Tween 80 and Kolliphore EL
[5] = Zinc ethyl maltol reservoir co-solvent solubility screening; type: physicochemical; conditions: for Solubility in PEG400:PEG1000: 3 mL methanol
Method: Pre-formulation studies were completed to optimise the solubility of zinc ethyl maltol using a variety of co-solvents that could be applied to the skin, such as Transcutol and ethanol. Polymers such as PEG 1000, Natrsol M250, and PVP were used to aid the solubilisation process. The compatibility of the complex with the solvents was evaluated by examining the clarity of the mixture. Following the optimisation of the complex solubility, the reservoir patch was developed using the backing layer, drug in solution, and liner release layer. The backing used was 3M™ Scotchpak™ Polyester Backing Film Laminate 9730. Different liner release membranes were investigated including, regenerated cellulose (12-14 k molecular weight cut-off Medical International UK), nylon (0.20 μm, Whatman, UK), and CoTran 9728 (3M, Germany). A 200 μL aliquot of zinc ethyl maltol complex in solution was applied on the liner release membrane, then covered by the backing layer and all layers thermally sealed (HeatPress machine HP230B).
The solution left to evaporate overnight to form a supersaturated solution (Table 4). This solution was then loaded into the reservoir patch.

[6] = Solubility of zinc chloride and zinc complexes (visual / HPLC); type: physicochemical
Method: Accurate measurement of the solubility was then repeated for some of the solvent systems by HPLC. In the HPLC solubility studies, an excess of the test agents was loaded into 2 mL of each test solvent. The solutions were left stirring overnight at 32° C. […] The drug suspensions were then centrifuged, the supernatant diluted, and each sample concentration was measured using HPLC.

[7] = Franz cell porcine skin permeation and deposition of zinc from solutions; type: in vitro ADME; conditions: solution in PEG (6 mg/mL)
[8] = as above; type: in vitro ADME; parameters: elemental zinc skin deposition: unit not given here
Method: Porcine skin permeation studies were performed to compare the permeation of zinc chloride and the zinc ethyl maltol complex. The permeation of zinc chloride vs zinc ethyl maltol from PG saturated solutions (zinc chloride and zinc ethyl maltol solutions in PG was 2.45 and 2.10 mg/mL, respectively) and permeation of zinc chloride from PG statured solution vs zinc ethyl maltol from PEG400 saturated solutions were investigated (zinc ethyl maltol in PEG400 100 mg/mL). In addition, the permeation of the zinc ethyl complex from PEG400 saturated solution and PEG400:PEG1000 (8:2% w/w) was compared. For the PEG mixture, the zinc ethyl maltol donor was prepared by dissolving 60 mg of the complex in 3 mL of methanol and 1 mL of 80% w/w PEG400:20% w/w PEG 1000 then added. The solution was left overnight to allow the evaporation of methanol.
Permeation studies were conducted using previously validated Franz cell method based on the principles of the FDA, SUPAC-SS guidelines [FDA (CDER), 1997, Guidance for industry—SUPAC-SS Non-sterile Semisolid Dosage Form, Scale-up and post-approval changes: chemistry, manufacturing, and controls; in vitro release testing and in vivo bioequivalence documentation](FIG. 4). On the day of the experiment, the porcine skin was defrosted and either prepared as full-thickness sheets but removing the fat or dermatome to a 1 mm thickness (Nouvag, AG). The tissue was cut into 34 mm circles to allow an exposure area of 2.19±0.21 cm^2 and positioned between donor and receiver compartments of Franz diffusion cells. Each piece of skin was sealed between the two compartments using parafilm (Bemis Company, Neenah, WI). A 12 mm magnetic stir bar was placed into the receiver compartment of each Franz cell. The receiver compartment was loaded with 50 mM phosphate-buffered saline (pH 7.4). The cell sealing was verified by Franz cell inversion (6 times) and monitoring solvent back diffusion. The temperature of the Franz diffusion was set at 37° C. in a water bath to reach a skin temperature of 32° C. After 1 h equilibration at 37° C. in the water bath, 1 mL of receiver fluid was withdrawn (time point=0 min), and a fresh receiver solution was replaced into the cell to keep the volume consistent. Each formulation (1 mL) was applied in the donor compartment that was then covered with parafilm to avoid evaporation. After 24 h, the receiver fluid was collected and analysed by HPLC.
At the end of the permeation studies, the Franz cells were dismantled. The donor solutions were collected from each cell and transferred into 5-mL glass bottles containing 2 mL of PDCA as extraction fluid. This step was followed by wiping the skin surface and the donor compartment with two wet (wetted with extraction fluid) and then two dry cotton buds. The skin's permeation area was then cut into small pieces by scalpels and placed into a 5 mL glass bottle containing 4 mL of extraction fluid. All skin samples were kept at the bench with extraction fluid for 1 hour. This step was followed by separating each vial's content (cut skin and extraction fluid) into 2 mL Eppendorf tubes that were then loaded in TissuLyser machine for 20 minutes. Samples were then centrifuged for 15 minutes at 13,000 rpm. The content of each Eppendorf tube was filtered using 0.45 µm syringe filters, collected, and analysed by HPLC.

[9] = Zinc ethyl maltol adhesive suitability (solubility/compatibility) screening; type: physicochemical
Method: Pre-formulation studies were performed to determine the compatibility of zinc ethyl maltol with a variety of adhesives that could be used to manufacture a transdermal patch (Table 2). The compatibility of the zinc complexes with the patch excipients was evaluated by examining the clarity of the mixture upon mixing. […] Following patch optimisation, the optimised drug-adhesive solutions were cast in 10×10 cm^2 trays made of the patch backing (3M™ Scotchpak™ Polyester Backing Film Laminate 9730, 3M, Germany). An adequate volume of the adhesive was applied to achieve a target coating level of 8 mg/cm^2 (equivalent to 80 g/m^2). Following complete drying of the solvents, the adhesive layer was covered by an M3 Release liner (SCOTCHPAK 9755), compressed, and then cut using a 34 mm circular manual die cutter (SCP Super Cutting Press).

[10] = drug loading 4%, no permeation enhancer
[11] = drug loading 8%, no permeation enhancer
[12] = drug loading 10%, 5.5 mg Transcutol
[13] = drug loading 10%, no permeation enhancer

- compatibility with adhesives [1]: only compatible with DURO-TAK 9301
- Solubility in DURO-TAK 9301 patch ([1]; drug loading 4%, 2 mg PG): Clear
- Solubility in DURO-TAK 9301 patch [1, 10]: Clear
- Solubility in DURO-TAK 9301 patch ([1]; drug loading 7%, 8 mg Maltol): Precipitated
- Solubility in DURO-TAK 9301 patch ([1]; drug loading 7.5%, 4 mg PG): Precipitated
- Solubility in DURO-TAK 9301 patch [1, 11]: Precipitated
- Solubility in DURO-TAK 9301 patch ([1]; drug loading 10%, 5.5 mg PG): Precipitated
- Solubility in DURO-TAK 9301 patch [1, 12]: Precipitated
- Solubility in DURO-TAK 9301 patch [1, 13]: Precipitated
- (maximum) complex loading achieved in adhesive ([1]; methanol stock solution 10 mg/mL): 4%
- complex loading achieved in adhesive patch ([1]; methanol stock solution 18 mg/mL): 8.5%
- Solubility of complex (visual) ([2]; Chloroform): <6 mg/mL Iron kojic*
- Solubility of complex (visual) ([2]; Ethyl acetate): <6 mg/mL Iron kojic*
- Solubility of complex (visual) ([2]; Glycerol): <6 mg/mL Iron kojic*
- Solubility of complex (visual) ([2]; Hexane): <6 mg/mL Iron kojic*
- Solubility of complex (visual) ([2]; Methanol): ≥18 mg/mL Iron kojic*
- Solubility of complex (visual) ([2]; Oleic acid): <6 mg/mL Iron kojic*
- Solubility of complex (visual) ([2]; PEG400): <6 mg/mL Iron kojic*
- Solubility of complex (visual) ([2]; PG): ≥8 mg/mL Iron kojic*
- Solubility of complex (visual) ([2]; Propanol): <6 mg/mL Iron kojic*
- Solubility of complex (visual) ([2]; Transcutul): ≥ 8 mg/mL Iron kojic*
- Solubility of complex (visual) ([2]; Triaceten): <6 mg/mL Iron kojic*
- deposition compared to existing commercial iron transdermal patch [3]: no significant difference
SMILES: O=c1cc(CO)occ1[O-].O=c1cc(CO)occ1[O-].O=c1cc(CO)occ1[O-].[Fe+3] [Iron kojic, iron kojic acid]

- Solubility in DURO-TAK 9301 patch ([1]; drug loading 4%, 2 mg PG): Clear
- Solubility in DURO-TAK 9301 patch [1, 10]: Clear
- Solubility in DURO-TAK 9301 patch ([1]; drug loading 6%, no permeation enhancer): Precipitated
- Solubility in DURO-TAK 9301 patch ([1]; drug loading 7%, 8 mg Maltol): Precipitated
- Solubility in DURO-TAK 9301 patch ([1]; drug loading 7.5%, 4 mg PG): Precipitated
- Solubility in DURO-TAK 9301 patch [1, 11]: Precipitated
- Solubility in DURO-TAK 9301 patch ([1]; drug loading 10%, 5.5 mg PG): Precipitated
- Solubility in DURO-TAK 9301 patch [1, 12]: Precipitated
- Solubility in DURO-TAK 9301 patch [1, 13]: Precipitated
- Solubility of complex (visual) ([2]; PEG400): <20 mg/mg/mL
- Solubility of complex (visual) ([2]; PG): ≥20 mg/mg/mL
- Solubility of complex (visual) ([2]; Transcutul): <20 mg/mg/mL
- visual solubility [4]: ≤ 32 mg/mL
SMILES: Cc1occc(=O)c1[O-].Cc1occc(=O)c1[O-].Cc1occc(=O)c1[O-].[Fe+3] [Iron maltol made at pH 7.4, iron maltol]

- Solubility in PEG400:PEG1000 ([5]; 60 mg, 1 mL PEG400:PEG1000 (2% w/w:8% w/w)): Not soluble
- Solubility in PEG400:PEG1000 ([5]; 60 mg, 1 mL PEG400:PEG1000 (6% w/w:4% w/w)): Not soluble
- Solubility in PEG400:PEG1000 ([5]; 60 mg, 1 mL PEG400:PEG1000 (8% w/w:2% w/w)): Soluble
- Solubility in PEG400:PEG1000 ([5]; 80 mg, 1 mL PEG400:PEG1000 (6% w/w:4% w/w)): Not soluble
- Solubility in PEG400:PEG1000 ([5]; 80 mg, 1 mL PEG400:PEG1000 (8% w/w:2% w/w)): Not soluble
- Solubility in PEG400:PEG1000 ([5]; 100 mg, 1 mL PEG400:PEG1000 (6% w/w:4% w/w)): Not soluble
- Solubility in PEG400:PEG1000 ([5]; 100 mg, 1 mL PEG400:PEG1000 (8% w/w:2% w/w)): Not soluble
- Solubility in PEG400:PEG1000 ([5]; 120 mg, 1 mL PEG400:PEG1000 (6% w/w:4% w/w)): Not soluble
- Solubility in PEG400:PEG1000 ([5]; 120 mg, 1 mL PEG400:PEG1000 (8% w/w:2% w/w)): Not soluble
- maximum solubility of zinc ethyl maltol complex ([5]; PEG400): 30 mg/mL
- elemental zinc achieved in supersaturated solution ([5]; supersaturated solution based on PEG400/PG6000): 28.8 mg/mL
- Elemental zinc solubility evaluated by HPLC ([6]; solvent PEG400): 6.6 mg/mL
- Elemental zinc solubility evaluated by HPLC ([6]; solvent PG): 2.1 mg/mL
- Elemental zinc solubility evaluated by HPLC ([6]; solvent Transcutol): 6.0 mg/mL
- permeation of elemental zinc [7]: 173.6 μg/cm^2
- transdermal permeation of elemental zinc ([8]; 1 mL PG solution, 24 h): 4.85 µg/cm^2
- permeation of elemental zinc ([8]; solution in PG ([…])): 41 μg/cm^2
- daily dose delivered by the solution ([8]; solution, extrapolated): approximately 2 mg
- elemental zinc passed through the skin ([8]; supersaturated solution (conclusions)): 237.93 μg/cm^2
- elemental zinc permeated through the skin ([8]; supersaturated solution in PEG400:PEG1000 (8% w/w:2% w/w), 24 h): 238 µg/cm^2
- elemental zinc skin deposition ([8]; vehicle PEG400, 24 h): 44.84
- transdermal permeation of elemental zinc ([8]; vehicle PEG400, 24 h): 174 µg/cm^2
- transdermal permeation compared to zinc chloride ([8]; zinc ethyl maltol in PEG400 vs zinc chloride in PG): 4.8 fold
- Solubility in DURO-TAK 9301 ([9]; drug loading 5%, no Transcutol): Not Soluble
- Solubility in DURO-TAK 9301 ([9]; drug loading 7.4%, Transcutol 12.5 mg): Soluble
- Solubility in DURO-TAK 9301 ([9]; drug loading 7.5%, no Transcutol): Not Soluble
- Solubility in DURO-TAK 9301 ([9]; drug loading 10%, no Transcutol): Not Soluble
- Solubility in DURO-TAK 9301 ([9]; drug loading […], no Transcutol): Not Soluble
SMILES: CCc1occc(=O)c1[O][Zn][O]c1c(CC)occc1=O [Zinc Ethyl Maltol, zinc ethyl maltol]
